Assay results from the CheMixHub viscosity set.
± gives the uncertainty stated by the source.

Test: xn = mol fraction of the nth substance listed

O=C1CCCC1 + CCCCCO
303.15 K, 101 kPa
Details	viscosity [mPa·s]
x1 = 0.0989	2.258 ± 0.02
x1 = 0.2598	1.682 ± 0.015
x1 = 0.4202	1.353 ± 0.012
x1 = 0.5803	1.179 ± 0.011
x1 = 0.7374	1.057 ± 0.01
x1 = 0.9009	0.98 ± 0.009

ClC=C(Cl)Cl + CO
viscosity [mPa·s], 101 kPa
Details	293.15 K	303.15 K	313.15 K	323.15 K
x2 = 0.017	0.554 ± 0.011	0.507 ± 0.01	0.466 ± 0.01	0.429 ± 0.009
x2 = 0.057	0.56 ± 0.011	0.509 ± 0.01	0.466 ± 0.01	0.427 ± 0.009
x2 = 0.152	0.58 ± 0.012	0.523 ± 0.011	0.476 ± 0.01	0.435 ± 0.009
x2 = 0.1523	–	0.56 ± 0.0074	0.524 ± 0.007	0.473 ± 0.0063
x2 = 0.286	0.605 ± 0.012	0.541 ± 0.011	0.485 ± 0.01	0.441 ± 0.009
x2 = 0.3071	–	0.55 ± 0.0073	0.518 ± 0.0069	0.4735 ± 0.0063
x2 = 0.446	–	0.54 ± 0.0072	0.511 ± 0.0068	0.473 ± 0.0063
x2 = 0.562	0.656 ± 0.013	0.576 ± 0.012	0.508 ± 0.011	0.452 ± 0.01
x2 = 0.5963	–	0.53 ± 0.0071	0.505 ± 0.0067	0.474 ± 0.0063
x2 = 0.6	0.667 ± 0.013	0.581 ± 0.012	0.513 ± 0.011	0.455 ± 0.01
x2 = 0.699	0.674 ± 0.013	0.59 ± 0.012	0.519 ± 0.011	0.461 ± 0.01
x2 = 0.72	0.67 ± 0.013	0.587 ± 0.012	0.517 ± 0.011	0.458 ± 0.01
x2 = 0.756	–	0.518 ± 0.0069	0.497 ± 0.0066	0.475 ± 0.0063
x2 = 0.78	0.663 ± 0.013	0.578 ± 0.012	0.508 ± 0.011	0.45 ± 0.01
x2 = 0.9011	–	0.508 ± 0.0068	0.492 ± 0.0065	0.476 ± 0.0063
x2 = 0.92	0.62 ± 0.012	0.543 ± 0.011	0.477 ± 0.01	0.423 ± 0.009

CCCCCCCC[P+](CC)(CC)CC.N#Cc1ccc[n-]1 + OCCN(CCO)CCO
viscosity [mPa·s], 100 kPa
Details	293.15 K	298.15 K	303.15 K	313.15 K
x1 = 0.014	950 ± 140	622 ± 93	405 ± 59	185 ± 27
x1 = 0.025	986 ± 150	640 ± 95	415 ± 61	190 ± 27
x1 = 0.039	1004 ± 150	657 ± 98	426 ± 62	193 ± 28
x1 = 0.049	1011 ± 150	660 ± 99	426 ± 63	193 ± 28
x1 = 0.104	939 ± 140	596 ± 89	380 ± 55	175 ± 25
x1 = 0.167	824 ± 120	539 ± 80	351 ± 51	163 ± 23
x1 = 0.223	812 ± 120	533 ± 79	352 ± 51	166 ± 24
x1 = 0.315	722 ± 110	474 ± 70	314 ± 46	152 ± 22
x1 = 0.508	619 ± 92	422 ± 62	284 ± 41	140 ± 20
x1 = 0.647	600 ± 89	406 ± 60	273 ± 39	136 ± 20
x1 = 0.809	438 ± 64	301 ± 44	202 ± 29	101 ± 14
